Assays:
[1] = Dose Through Unit (DTU) dose uniformity of MDI; assay type: physicochemical; conditions: for overall mean dose of medicament delivered through the actuator, combining beginning and end of use doses / overall mean dose delivered through the actuator, combined beginning and end of use: HFA 134a; for overall mean dose delivered through the actuator, combining beginning and end of use: Example 4: Compound A in combination with Compound D, HFA-134a MDI 100/100 μg/act, target output compound D 90 μg, compound A 90 μg; for overall mean dose delivered through the actuator, combined beginning and end of use: Example 5: Compound E in combination with Compound A, MDI 100/50 μg/act, target output Compound E 90 μg, Compound A 45 μg
Experimental: The dose collection apparatus (500 ml separatory funnel with a cotton plug) was assembled and the flow rate was set to 20 L/min. Test units were stored at ambient conditions for two weeks after manufacture prior to DTU testing. For the testing at the beginning of the unit, the MDIs were primed two times with a priming actuator and four times to waste with the test actuator, shaking the units between each actuation. Two test actuations were collected in the dose collection apparatus, shaking the unit between actuations. The collection apparatus was rinsed with an appropriate volume of diluent, and the rinsate with the collected dose was analyzed by conventional HPLC analysis. For end of unit testing, the MDIs were actuated an additional 48 times to waste, shaking between each actuation. The MDIs were then actuated four times to waste through a new test actuator. Two test actuations were then collected in the dose collection apparatus, shaking the unit between actuations. The collection apparatus was rinsed with an appropriate volume of diluent, and the rinsate with the collected dose was analyzed by conventional HPLC analysis.
The reported results are the average of ten units at both the beginning and end of unit use.

[2] = Andersen Cascade Impactor (ACI) fine particle fraction of MDI; assay type: physicochemical; conditions: for Fine Particle Fraction (FPF) expressed as percentage of 25 μg, the total dose target: Example 1: Compound A MDI, 25 μg/act; for Fine Particle Fraction (FPF) expressed as percentage of 25 μg, the total dose target / Fine Particle Fraction expressed as a percentage of the total dose target, for Compound B, 10 μg and for the Compound A, 25 μg / Fine Particle Fraction (FPF) expressed as a percentage of the total dose target, for Compound C, 12.5 μg and for Compound A, 25 μg / Fine Particle Fraction (FPF) expressed as percentage of the total dose target of Compound E, 100 μg and for Compound A, 50 μg: HFA 134a; for Fine Particle Fraction expressed as a percentage of the total dose target, for Compound B, 10 μg and for the Compound A, 25 μg: Example 2: Compound A in combination with Compound B; for Fine Particle Fraction expressed as a percentage of the total dose target, for Compound B, 10 μg and for the Compound A, 25 μg / Fine Particle Fraction (FPF) expressed as a percentage of the total dose target, for Compound C, 12.5 μg and for Compound A, 25 μg: MDI; for Fine Particle Fraction (FPF) expressed as a percentage of the total dose target, for Compound C, 12.5 μg and for Compound A, 25 μg: Example 3: Compound A in combination with Compound C, 25/12.5 μg/act; for Fine Particle Fraction (FPF) expressed as a percentage of the total dose target, for Compound D, 100 μg, and for Compound A, 100 μg: Example 4: Compound A in combination with Compound D, HFA-134a MDI 100/100 μg/act; for Fine Particle Fraction (FPF) expressed as percentage of the total dose target of Compound E, 100 μg and for Compound A, 50 μg: Example 5: Compound E in combination with Compound A, MDI 100/50 μg/act
Excerpt: The fine particle fraction of the aerosol formulations according to the invention may be measured by conventional techniques, for example, by cascade impaction by measuring particle size distribution. The Cascade Impactor is designed to mimic the human buccal cavity and bronchial tract and the cascade Impactor test is designed to reveal the amount of deposition of inhaled drug substance at various stages thereof. As used herein reference to the “cascade impaction” assay means determination of the deposition of the emitted dose in pressurised inhalations as defined in European Pharmacopoeia, Section 2.9.18, 5th edition “Preparations for Inhalation, Apparatus D”. Such techniques enable the “respirable fraction” of the aerosol formulations to be calculated. One method used to calculate the “respirable fraction” is by reference to “fine particle fraction” which is the amount of active ingredient collected in stages 3 to 5 (aerodynamic diameter 1.1-4.7 μm) which represents the lung, per actuation expressed as a percentage of the total amount of active ingredient delivered per actuation using the cascade impactor method described above. Earlier stages represent the aerosol device itself, the throat and the upper reaches of the bronchial tract, and the later stages representing potential systemic absorption through the wall of the lung which may cause serious side effects.
The Andersen Cascade Impactor Mark II (ACI) was assembled and the flow rate was set to 28.3 L/min. The units were primed four times with the test actuator prior to dose collection, shaking between actuations. Between 5 and 20 actuations were collected in the ACI assembly. The ACI was disassembled and the components were rinsed with an appropriate amount of solvent that ensures dissolution of all formulation ingredients. The rinsate was collected for analysis by conventional HPLC analysis.

[3] = 0.1% w/w of polymer of formula (II), 12 Week at 40° C./75% relative humidity
[4] = 0.1% w/w of polymer of formula (II), Initial
[5] = surfactant-free, 12 Week at 40° C./75% relative humidity

In the case of `C[C@@H]1C[C@H]2[C@@H]3C[C@H](F)C4=CC(=O)C=C[C@]4(C)[C@@]3(F)[C@@H](O)C[C@]2(C)[C@@]1(OC(=O)c1ccco1)C(=O)SCF` [Compound A, 6α, 9α-Difluoro-17α-[(2-furanylcarbonyl)oxy]-11β-hydroxy-16α-methyl-3-oxo-androsta-1,4-diene-17β-carbothioic acid S-fluoromethyl ester], the “overall mean dose of medicament delivered through the actuator, combining beginning and end of use doses” value (“overall mean dose … of use doses” below) ([1]; Example 1: Compound A MDI, 25 μg/act, 0.1% w/w of polymer of formula (II), 12 Week at 40° C./75% relative humidity, target output 22.5 μg/act) is reported as 98%, the “overall mean dose … of use doses” value ([1]; Example 1: Compound A MDI, 25 μg/act, 0.1% w/w of polymer of formula (II), Initial, target output 22.5 μg/act) is reported as 98% and the “overall mean dose … of use doses” value ([1]; Example 1: Compound A MDI, 25 μg/act, surfactant-free, 12 Week at 40° C./75% relative humidity, target output 22.5 μg/act) is reported as 72%. The “overall mean dose … of use doses” value ([1]; Example 1: Compound A MDI, 25 μg/act, surfactant-free, Initial, target output 22.5 μg/act) was 66%, the “overall mean dose … of use doses” value ([1]; Example 2: Compound A in combination with Compound B, MDI, 25/10 μg/act, 0.1% w/w of polymer of formula (II), 12 Week at 40° C./75% relative humidity, target output Compound B 8.5 μg, Compound A 22.5 μg) was 110% and the “overall mean dose … of use doses” value ([1]; Example 2: Compound A in combination with Compound B, MDI, 25/10 μg/act, 0.1% w/w of polymer of formula (II), Initial, target output Compound B 8.5 μg, Compound A 22.5 μg) was 107%. For the same compound, the “overall mean dose … of use doses” value ([1]; Example 2: Compound A in combination with Compound B, MDI, 25/10 μg/act, surfactant-free, 12 Week at 40° C./75% relative humidity, target output Compound B 8.5 μg, Compound A 22.5 μg) was 62%, the “overall mean dose … of use doses” value ([1]; Example 2: Compound A in combination with Compound B, MDI, 25/10 μg/act, surfactant-free, Initial, target output Compound B 8.5 μg, Compound A 22.5 μg) was 63% and the “overall mean dose … of use doses” value ([1]; Example 3: Compound A in combination with Compound C, MDI, 25/12.5 μg/act, 0.1% w/w polymer of formula (II), 12 Week at 40° C./75 relative humidity, target output Compound C 11.3 μg, Compound A 22.5 μg) was 107%. For the same compound, the “overall mean dose … of use doses” value ([1]; Example 3: Compound A in combination with Compound C, MDI, 25/12.5 μg/act, 0.1% w/w polymer of formula (II), Initial, target output Compound C 11.3 μg, Compound A 22.5 μg) was 101%, the “overall mean dose … of use doses” value ([1]; Example 3: Compound A in combination with Compound C, MDI, 25/12.5 μg/act, surfactant-free, 12 Week at 40° C./75 relative humidity, target output Compound C 11.3 μg, Compound A 22.5 μg) was 76% and the “overall mean dose … of use doses” value ([1]; Example 3: Compound A in combination with Compound C, MDI, 25/12.5 μg/act, surfactant-free, Initial, target output Compound C 11.3 μg, Compound A 22.5 μg) was 75%. The “overall mean dose delivered through the actuator, combining beginning and end of use” value [1, 3] was 111%, the “overall mean dose delivered through the actuator, combining beginning and end of use” value [1, 4] was 106% and the “overall mean dose delivered through the actuator, combined beginning and end of use” value [1, 3] was 109%. The “overall mean dose delivered through the actuator, combined beginning and end of use” value [1, 4] was 104%, the “Fine Particle Fraction (FPF) expressed as percentage of 25 μg, the total dose target” value [2, 3] was 22% and the “Fine Particle Fraction (FPF) expressed as percentage of 25 μg, the total dose target” value [2, 4] was 24%. For the same compound, the “Fine Particle Fraction (FPF) expressed as percentage of 25 μg, the total dose target” value [2, 5] was 16%, the “Fine Particle Fraction (FPF) expressed as percentage of 25 μg, the total dose target” value ([2]; surfactant-free, Initial) was 17% and the “Fine Particle Fraction expressed as a percentage of the total dose target, for Compound B, 10 μg and for the Compound A, 25 μg” value [2, 3] was 35%. For the same compound, the “Fine Particle Fraction expressed as a percentage of the total dose target, for Compound B, 10 μg and for the Compound A, 25 μg” value [2, 4] was 32%, the “Fine Particle Fraction expressed as a percentage of the total dose target, for Compound B, 10 μg and for the Compound A, 25 μg” value [2, 5] was 18% and the “Fine Particle Fraction expressed as a percentage of the total dose target, for Compound B, 10 μg and for the Compound A, 25 μg” value ([2]; surfactant-free, Initial) was 18%. The “Fine Particle Fraction (FPF) expressed as a percentage of the total dose target, for Compound C, 12.5 μg and for Compound A, 25 μg” value ([2]; 0.1% w/w polymer of formula (II), 12 Week 40° C./75 relative humidity) was 20%, the “Fine Particle Fraction (FPF) expressed as a percentage of the total dose target, for Compound C, 12.5 μg and for Compound A, 25 μg” value ([2]; 0.1% w/w polymer of formula (II), Initial) was 21% and the “Fine Particle Fraction (FPF) expressed as a percentage of the total dose target, for Compound C, 12.5 μg and for Compound A, 25 μg” value ([2]; surfactant-free, 12 Week 40° C./75 relative humidity) was 16%. For the same compound, the “Fine Particle Fraction (FPF) expressed as a percentage of the total dose target, for Compound C, 12.5 μg and for Compound A, 25 μg” value ([2]; surfactant-free, Initial) was 11%, the “Fine Particle Fraction (FPF) expressed as a percentage of the total dose target, for Compound D, 100 μg, and for Compound A, 100 μg” value [2, 3] was 19% and the “Fine Particle Fraction (FPF) expressed as a percentage of the total dose target, for Compound D, 100 μg, and for Compound A, 100 μg” value [2, 4] was 21%. For the same compound, the “Fine Particle Fraction (FPF) expressed as percentage of the total dose target of Compound E, 100 μg and for Compound A, 50 μg” value [2, 3] was 22% and the “Fine Particle Fraction (FPF) expressed as percentage of the total dose target of Compound E, 100 μg and for Compound A, 50 μg” value [2, 4] was 23%.
